Results published in patent publication US12077503B2, “Substituted cyclic amides and their use as herbicides” (FMC CORPORATION, priority 2015, dated 2024).

What was measured:
Format in all cases: in vivo
Kochia (Kochia scoparia) [1] = assay: Test A preemergence; conditions: Bassia scoparia, pre-emergence, 240 h, 0 to 100 scale where 0 is no effect and 100 is complete control, read-out: Kochia plant response rating
How it was run: (§1)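 Seeds sprayed preemergence with a directed soil spray, or plants at 2 to 10 cm height and one- to two-leaf stage sprayed postemergence, with test chemicals in a non-phytotoxic solvent mixture containing surfactant, in loam soil–sand blend. Injury rated visually against untreated controls after about 10 d in greenhouse, 0 (no effect) to 100 (complete control).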

[2] = tested on: barnyardgrass (Echinochloa crus-galli); assay: Test A preemergence; conditions: Echinochloa crus-galli, pre-emergence, 240 h, 0 to 100 scale where 0 is no effect and 100 is complete control, read-out: Barnyardgrass plant response rating
How it was run: as §1

[3] = tested on: giant foxtail (Setaria faberii); assay: Test A preemergence; conditions: Setaria faberi, pre-emergence, 240 h, 0 to 100 scale where 0 is no effect and 100 is complete control, read-out: Foxtail, Giant plant response rating
How it was run: as §1

[4] = tested on: pigweed (Amaranthus retroflexus); assay: Test A preemergence; conditions: Amaranthus retroflexus, pre-emergence, 240 h, 0 to 100 scale where 0 is no effect and 100 is complete control, read-out: Pigweed plant response rating
[5] = tested on: ragweed (common ragweed, Ambrosia elatior); assay: Test A preemergence; conditions: Ambrosia artemisiifolia, pre-emergence, 240 h, 0 to 100 scale where 0 is no effect and 100 is complete control, read-out: Ragweed plant response rating
How it was run: as §1

[6] = tested on: ryegrass, Italian (Italian ryegrass, Lolium multiflorum); assay: Test A preemergence; conditions: Lolium multiflorum, pre-emergence, 240 h, 0 to 100 scale where 0 is no effect and 100 is complete control, read-out: Ryegrass, Italian plant response rating
How it was run: as §1

[7] = tested on: Galium (catchweed bedstraw, Galium aparine); assay: Test A postemergence; conditions: Galium, post-emergence, 240 h
How it was run: as §1

Kochia (Kochia scoparia) [8] = assay: Test A postemergence; conditions: Bassia scoparia, post-emergence, 240 h
How it was run: as §1

[9] = tested on: barnyardgrass (Echinochloa crus-galli); assay: Test A postemergence; conditions: Echinochloa crus-galli, post-emergence, 240 h
How it was run: as §1

[10] = tested on: blackgrass (Alopecurus myosuroides); assay: Test A postemergence; conditions: Alopecurus myosuroides, post-emergence, 240 h
How it was run: as §1

corn (Zea mays) = assay: Test A postemergence; conditions: Zea mays, post-emergence, 240 h
How it was run: as §1

[11] = tested on: giant foxtail (Setaria faberii); assay: Test A postemergence; conditions: Setaria faberi, post-emergence, 240 h
How it was run: as §1

[12] = tested on: pigweed (Amaranthus retroflexus); assay: Test A postemergence; conditions: Amaranthus retroflexus, post-emergence, 240 h
How it was run: as §1

[13] = tested on: ragweed (common ragweed, Ambrosia elatior); assay: Test A postemergence; conditions: Ambrosia artemisiifolia, post-emergence, 240 h
How it was run: as §1

[14] = tested on: ryegrass, Italian (Italian ryegrass, Lolium multiflorum); assay: Test A postemergence; conditions: Lolium multiflorum, post-emergence, 240 h
How it was run: as §1

[15] = tested on: wheat (Triticum aestivum); assay: Test A postemergence; conditions: Triticum aestivum, post-emergence, 240 h
How it was run: as §1

[16] = tested on: barnyardgrass (Echinochloa crus-galli); assay: Test B flooded paddy test; conditions: Echinochloa crus-galli, 250 g ai/ha, Flood; 0 to 100 scale where 0 is no effect and 100 is complete control; read-out: Barnyardgrass plant response rating
How it was run: (§2)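 Plants at 2-leaf stage flooded to 3 cm above soil, with compounds applied directly to paddy water and that depth maintained. Plants kept in greenhouse 13–15 d. Visual rating versus controls on a 0 (no effect) to 100 (complete control) scale.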

[17] = tested on: ducksalad (Heteranthera limosa); assay: Test B flooded paddy test; conditions: Heteranthera limosa, 250 g ai/ha, Flood; 0 to 100 scale where 0 is no effect and 100 is complete control; read-out: Ducksalad plant response rating
How it was run: as §2

rice (Oryra sativa) = assay: Test B flooded paddy test; conditions: Oryza sativa, 250 g ai/ha, Flood; 0 to 100 scale where 0 is no effect and 100 is complete control; read-out: Rice plant response rating
How it was run: as §2

[18] = tested on: sedge, umbrella (small-flower umbrella sedge, Cyperus difformis); assay: Test B flooded paddy test; conditions: Cyperus difformis, 250 g ai/ha, Flood; 0 to 100 scale where 0 is no effect and 100 is complete control; read-out: Sedge, Umbrella plant response rating
How it was run: as §2

[19] = 125 g ai/ha, preemergence, approx. 10 d

`C=C(C)c1cccc([C@H]2CN(C)C(=O)[C@@H]2C(=O)Nc2cccc(F)c2C)c1` [Compound 1086] showed a pest or weed control at 31 g/ha (Kochia (Kochia scoparia) [1]; 31 g ai/ha, Preemergence) of 0%, a pest or weed control at 125 g/ha (Kochia (Kochia scoparia) [1]; [19]) of 0% and a pest or weed control at 31 g/ha ([2]; 31 g ai/ha, Preemergence) of 80%. For the same molecule, the pest or weed control at 125 g/ha [2, 19] was 80%, the pest or weed control at 31 g/ha ([3]; 31 g ai/ha, Preemergence) was 90% and the pest or weed control at 125 g/ha [3, 19] was 100%. The pest or weed control at 31 g/ha ([4]; 31 g ai/ha, Preemergence) was 0%, the pest or weed control at 125 g/ha [4, 19] was 0% and the pest or weed control at 31 g/ha ([5]; 31 g ai/ha, Preemergence) was 0%. It also gave a pest or weed control at 125 g/ha [5, 19] of 0%, a pest or weed control at 31 g/ha ([6]; 31 g ai/ha, Preemergence) of 0% and a pest or weed control at 125 g/ha [6, 19] of 30%. It also gave a pest or weed control at 125 g/ha ([7]; 125 g ai/ha, postemergence, visual injury on 0 to 100 scale (0 no effect, 100 complete control), approx. 10 d, read-out: Galium plant response rating) of 20%, a pest or weed control at 31 g/ha ([7]; Postemergence, 31 g ai/ha, visual injury after approx. 10 d, 0 to 100 scale, 0 no effect, 100 complete control, read-out: Plant response rating, Galium) of 0% and a pest or weed control at 125 g/ha (Kochia (Kochia scoparia) [8]; 125 g ai/ha, postemergence, visual injury on 0 to 100 scale (0 no effect, 100 complete control), approx. 10 d, read-out: Kochia plant response rating) of 0%. For the same molecule, the pest or weed control at 31 g/ha (Kochia (Kochia scoparia) [8]; Postemergence, 31 g ai/ha, visual injury after approx. 10 d, 0 to 100 scale, 0 no effect, 100 complete control, read-out: Plant response rating, Kochia) was 0%, the pest or weed control at 125 g/ha ([9]; 125 g ai/ha, postemergence, visual injury on 0 to 100 scale (0 no effect, 100 complete control), approx. 10 d, read-out: Barnyardgrass plant response rating) was 90% and the pest or weed control at 31 g/ha ([9]; Postemergence, 31 g ai/ha, visual injury after approx. 10 d, 0 to 100 scale, 0 no effect, 100 complete control, read-out: Plant response rating, Barnyardgrass) was 30%. It also gave a pest or weed control at 125 g/ha ([10]; 125 g ai/ha, postemergence, visual injury on 0 to 100 scale (0 no effect, 100 complete control), approx. 10 d, read-out: Blackgrass plant response rating) of 0%, a pest or weed control at 31 g/ha ([10]; Postemergence, 31 g ai/ha, visual injury after approx. 10 d, 0 to 100 scale, 0 no effect, 100 complete control, read-out: Plant response rating, Blackgrass) of 0% and a plant injury at 125 g/ha (corn (Zea mays); 125 g ai/ha, postemergence, visual injury on 0 to 100 scale (0 no effect, 100 complete control), approx. 10 d, read-out: Corn plant response rating) of 30%. For the same molecule, the Corn plant response rating (crop injury, 0 = no effect, 100 = complete kill) at 31 g/ha (corn (Zea mays); Postemergence, 31 g ai/ha, visual injury after approx. 10 d, 0 to 100 scale, 0 no effect, 100 complete control) was 0%, the pest or weed control at 125 g/ha ([11]; 125 g ai/ha, postemergence, visual injury on 0 to 100 scale (0 no effect, 100 complete control), approx. 10 d, read-out: Foxtail, Giant plant response rating) was 60% and the pest or weed control at 31 g/ha ([11]; Postemergence, 31 g ai/ha, visual injury after approx. 10 d, 0 to 100 scale, 0 no effect, 100 complete control, read-out: Plant response rating, Foxtail, Giant) was 10%. The pest or weed control at 125 g/ha ([12]; 125 g ai/ha, postemergence, visual injury on 0 to 100 scale (0 no effect, 100 complete control), approx. 10 d, read-out: Pigweed plant response rating) was 0%, the pest or weed control at 31 g/ha ([12]; Postemergence, 31 g ai/ha, visual injury after approx. 10 d, 0 to 100 scale, 0 no effect, 100 complete control, read-out: Plant response rating, Pigweed) was 0% and the pest or weed control at 125 g/ha ([13]; 125 g ai/ha, postemergence, visual injury on 0 to 100 scale (0 no effect, 100 complete control), approx. 10 d, read-out: Ragweed plant response rating) was 0%. For the same molecule, the pest or weed control at 31 g/ha ([13]; Postemergence, 31 g ai/ha, visual injury after approx. 10 d, 0 to 100 scale, 0 no effect, 100 complete control, read-out: Plant response rating, Ragweed) was 0%, the pest or weed control at 125 g/ha ([14]; 125 g ai/ha, postemergence, visual injury on 0 to 100 scale (0 no effect, 100 complete control), approx. 10 d, read-out: Ryegrass, Italian plant response rating) was 0% and the pest or weed control at 31 g/ha ([14]; Postemergence, 31 g ai/ha, visual injury after approx. 10 d, 0 to 100 scale, 0 no effect, 100 complete control, read-out: Plant response rating, Ryegrass, Italian) was 0%. It also gave a plant injury at 125 g/ha ([15]; 125 g ai/ha, postemergence, visual injury on 0 to 100 scale (0 no effect, 100 complete control), approx. 10 d, read-out: Wheat plant response rating) of 20%, a plant injury at 31 g/ha ([15]; Postemergence, 31 g ai/ha, visual injury after approx. 10 d, 0 to 100 scale, 0 no effect, 100 complete control, read-out: Plant response rating, Wheat) of 0% and a pest or weed control at 250 g/ha [16] of 45%. For the same molecule, the pest or weed control at 250 g/ha [17] was 40%, the pest or weed control at 250 g/ha (rice (Oryra sativa)) was 0% and the pest or weed control at 250 g/ha [18] was 0%.
